Assay results reported in patent US20240358693A1, “METHODS OF TREATING PAIN” (Aisa Pharma, Inc., priority 2023, published 2024).

Test system: participants with SSc-RP
Test: Average severity of weekly RP attacks (VAS 0-10 cm scale)
Type: in vivo, human
From the text: The absolute change in average severity of weekly RP attacks (VAS 0-10 cm scale) from baseline to the end of each Dosing Period was and will be a secondary outcome variable. The sponsor-developed participant-informed diary will be used to record data. Average severity of weekly RP attacks is defined as the total severity scores of RP attacks divided by total number of RP attacks within the last 7 days of each dosing period. Total severity scores of RP attacks during the last 7 days of screening period divided by the total number of RP attacks will be used as baseline for the analysis of all periods. The variable will be calculated similar to frequency data as before.

[1] = Cilnidipine 10 mg, n=1, Excluding Outliers, ITT Population - Part A
[2] = Cilnidipine 10 mg, n=1, ITT Population - Part A
[3] = Cilnidipine 10 mg, n=1, by Baseline RCS, first subgroup, ITT Population - Part A
[4] = Cilnidipine 10 mg, Excluding Outliers, ITT Population - Part A
[5] = Cilnidipine 10 mg, Excluding Outliers, by Baseline RCS, first subgroup, ITT Population - Part A
[6] = Cilnidipine 10 mg, ITT Population - Part A
[7] = Cilnidipine 10 mg, first Baseline RCS subgroup block (not named), ITT Part A
[8] = Cilnidipine 10 mg, first Baseline RCS subgroup block (not named), ITT Part A, score 0-10
[9] = Cilnidipine 20 mg, n=2, Excluding Outliers, ITT Population - Part A
[10] = Cilnidipine 20 mg, n=2, ITT Population - Part A
[11] = Cilnidipine 20 mg, n=2, by Baseline RCS, first subgroup, ITT Population - Part A
[12] = Cilnidipine 20 mg, Excluding Outliers, ITT Population - Part A
[13] = Cilnidipine 20 mg, Excluding Outliers, by Baseline RCS, first subgroup, ITT Population - Part A

COCCOC(=O)C1=C(C)NC(C)=C(C(=O)OC/C=C/c2ccccc2)C1c1cccc([N+](=O)[O-])c1 (stereo not shown) [Cilnidipine, cilnidipine]
−1.07: Average Severity of Weekly RP Attacks (All Attacks), Change from Baseline, Mean [12] | Average Severity of Weekly RP Attacks (All Attacks), Change from Baseline, Median [12] | Average Severity of Weekly RP Attacks (All Attacks), Change from Baseline, Mean (Cilnidipine 20 mg, ITT Population - Part A)
3.77: Average Severity (0-10) of Weekly Symptomatic RP Attacks, Mean [1] | Average Severity (0-10) of Weekly Symptomatic RP Attacks, Median [1] | Average Severity (0-10) of Weekly Symptomatic RP Attacks, Mean [2] | Average Severity (0-10) of Weekly Symptomatic RP Attacks, Median [2] | Average Severity (0-10) of Weekly Symptomatic RP Attacks, Mean [3] | Average Severity (0-10) of Weekly Symptomatic RP Attacks, Median [3] | Average Severity of Weekly Symptomatic RP Attacks (Mean) [5] | Average Severity of Weekly Symptomatic RP Attacks (Median) [5]
2.30: Average Severity (0-10) of Weekly Symptomatic RP Attacks, Mean [9] | Average Severity (0-10) of Weekly Symptomatic RP Attacks, Median [9] | Average Severity (0-10) of Weekly Symptomatic RP Attacks, Mean [10] | Average Severity (0-10) of Weekly Symptomatic RP Attacks, Median [10] | Average Severity (0-10) of Weekly Symptomatic RP Attacks, Mean [11] | Average Severity (0-10) of Weekly Symptomatic RP Attacks, Median [11] | Average Severity of Weekly RP Attacks (All Attacks), Mean [12] | Average Severity of Weekly RP Attacks (All Attacks), Median [12] | Average Severity of Weekly Symptomatic RP Attacks (Mean) [13] | Average Severity of Weekly Symptomatic RP Attacks (Median) [13]
8.05%: Average Severity of Weekly Symptomatic RP Attacks, Percent Change from Baseline, Mean [1] | Average Severity of Weekly Symptomatic RP Attacks, Percent Change from Baseline, Median [1] | Average Severity of Weekly Symptomatic RP Attacks, Percent Change from Baseline, Mean [2] | Average Severity of Weekly Symptomatic RP Attacks, Percent Change from Baseline, Median [2] | Average Severity of Weekly Symptomatic RP Attacks, Percent Change from Baseline, Mean [3] | Average Severity of Weekly Symptomatic RP Attacks, Percent Change from Baseline, Median [3] | Average Severity of Weekly Symptomatic RP Attacks, Percent Change from Baseline, Mean [5] | Average Severity of Weekly Symptomatic RP Attacks, Percent Change from Baseline, Median [5]
−1.44: Average Severity of Weekly Symptomatic RP Attacks, Change from Baseline, Mean [9] | Average Severity of Weekly Symptomatic RP Attacks, Change from Baseline, Median [9] | Average Severity of Weekly Symptomatic RP Attacks, Change from Baseline, Mean [10] | Average Severity of Weekly Symptomatic RP Attacks, Change from Baseline, Median [10] | Average Severity of Weekly Symptomatic RP Attacks, Change from Baseline, Mean [11] | Average Severity of Weekly Symptomatic RP Attacks, Change from Baseline, Median [11] | Average Severity of Weekly Symptomatic RP Attacks, Change from Baseline, Mean [13] | Average Severity of Weekly Symptomatic RP Attacks, Change from Baseline, Median [13]
0.28: Average Severity of Weekly Symptomatic RP Attacks, Change from Baseline, Mean [1] | Average Severity of Weekly Symptomatic RP Attacks, Change from Baseline, Median [1] | Average Severity of Weekly Symptomatic RP Attacks, Change from Baseline, Mean [2] | Average Severity of Weekly Symptomatic RP Attacks, Change from Baseline, Median [2] | Average Severity of Weekly Symptomatic RP Attacks, Change from Baseline, Mean [3] | Average Severity of Weekly Symptomatic RP Attacks, Change from Baseline, Median [3] | Average Severity of Weekly Symptomatic RP Attacks, Change from Baseline, Mean [5] | Average Severity of Weekly Symptomatic RP Attacks, Change from Baseline, Median [5]
3.05: Average Severity of Weekly RP Attacks (All Attacks), Mean [4] | Average Severity of Weekly RP Attacks (All Attacks), Median [4] | Average Severity of Weekly RP Attacks (All Attacks), Mean [6] | Average Severity of Weekly RP Attacks (All Attacks), Median [6] | Average Severity of Weekly RP Attacks (All Attacks), Mean [8] | Average Severity of Weekly RP Attacks (All Attacks), Median [8]
0.02: Average Severity of Weekly RP Attacks (All Attacks), Change from Baseline, Mean [4] | Average Severity of Weekly RP Attacks (All Attacks), Change from Baseline, Median [4] | Average Severity of Weekly RP Attacks (All Attacks), Change from Baseline, Mean [6] | Average Severity of Weekly RP Attacks (All Attacks), Change from Baseline, Median [6] | Average Severity of Weekly RP Attacks (All Attacks), Change from Baseline, Mean [8] | Average Severity of Weekly RP Attacks (All Attacks), Change from Baseline, Median [8]
−27.26%: Average Severity of Weekly RP Attacks (All Attacks), Percent Change from Baseline, Mean [12] | Average Severity of Weekly RP Attacks (All Attacks), Percent Change from Baseline, Median [12]
0.55%: Average Severity of Weekly RP Attacks (All Attacks), Percent Change from Baseline, Mean [4] | Average Severity of Weekly RP Attacks (All Attacks), Percent Change from Baseline, Median [4] | Average Severity of Weekly RP Attacks (All Attacks), Percent Change from Baseline, Mean [6] | Average Severity of Weekly RP Attacks (All Attacks), Percent Change from Baseline, Median [6] | Average Severity of Weekly RP Attacks (All Attacks), Percent Change from Baseline, Mean [7] | Average Severity of Weekly RP Attacks (All Attacks), Percent Change from Baseline, Median [7]
−32.85%: Average Severity of Weekly Symptomatic RP Attacks, Percent Change from Baseline, Mean [9] | Average Severity of Weekly Symptomatic RP Attacks, Percent Change from Baseline, Median [9] | Average Severity of Weekly Symptomatic RP Attacks, Percent Change from Baseline, Mean [10] | Average Severity of Weekly Symptomatic RP Attacks, Percent Change from Baseline, Median [10] | Average Severity of Weekly Symptomatic RP Attacks, Percent Change from Baseline, Mean [11] | Average Severity of Weekly Symptomatic RP Attacks, Percent Change from Baseline, Median [11] | Average Severity of Weekly Symptomatic RP Attacks, Percent Change from Baseline, Mean [13] | Average Severity of Weekly Symptomatic RP Attacks, Percent Change from Baseline, Median [13]
